Experimental data reported in US20190374627A1, “TARGET PEPTIDES FOR CANCER THERAPY AND DIAGNOSTICS” (priority 2016, published 2019).
Square brackets hold non-standard residues; d marks the D form. Ends that are not written are not given here. Met(O) = CS(=O)CC[C@H](N)C(=O)O; pS = N[C@@H](COP(=O)(O)O)C(=O)O

What was measured:
CD8^+ T cells (PBMCs) = experiment: Intracellular cytokine staining (ICS) of PBMCs after 7 days of stimulation with MHC-I-pP (healthy donors, HH patients); assay type: cell-based, human; details: for Reactive CD8^+ T cell population, HH2: HH patient HH2; for Reactive CD8^+ T cell population, HH3: HH patient HH3; for Reactive CD8^+ T cell population, HH6: HH patient HH6; for Reactive CD8^+ T cell population, HH8: HH patient HH8; for Reactive CD8^+ T cell population, HD1: Healthy donor HD1; for Reactive CD8^+ T cell population, HD4: Healthy donor HD4; for Reactive CD8^+ T cell population, HD5: Healthy donor HD5
Experimental: From this, CD8^+ T cell responses against newly identified MHC class I-associated phosphopeptides in healthy individuals and patients with chronic liver disease were investigated. Twenty-one of the newly identified HCC-associated HLA-A*0201-restricted phosphopeptides were selected (see Table 17) for further immunological testing in HLA-A*0201 positive patients. MHC-I-pP-specific cytotoxic CD8^+ T cell responses (ppCTL) were assessed using intracellular cytokine staining (ICS) and several cytokines and surface markers were assessed in parallel. After 7 days of stimulation with the respective MHC-I-pP and no other cytokines, CD3- and CD8-expressing T cells were stained for at least two different cytokines (IFN-γ, TNF-α) and when required CD107a expression as a marker for their cytotoxic potential.
First, peripheral blood mononuclear cells (PBMCs) from healthy donors and patients with hereditary hemochromatosis (HH) were analyzed. HH is a chronic liver disease characterized by excessive intestinal absorption of dietary iron resulting in a pathological deposition of iron in the liver. PBMCs or lymphocytes from liver tissue were extracted and specifically stimulated with (phospho-) peptides for 7 days before intracellular cytokine staining (ICS). Doublets and dead cells, using a fixable viability dye, were excluded. Lymphocytes were gated on CD3^+ and CD8^+ double positive cells and were analysed for expression of IFNγ, TNFα-, and CD107a.

[1] = system: expanded lymphocyte cultures from deceased donor livers, cirrhotic livers and HCC; experiment: ICS for MHC-I-pP reactivity of liver-derived lymphocyte cultures after phosphopeptide-specific expansion; assay type: cell-based, human; details: for ppCTL response, Deceased Donor Liver Do 2 / ppCTL response, Deceased Donor Liver Do 3 / ppCTL response, Deceased Donor Liver Do 4 / ppCTL response, Deceased Donor Liver Do 6 / ppCTL response, End-stage Liver Cirrhosis IHL 11 / ppCTL response, End-stage Liver Cirrhosis IHL 12 / ppCTL response, End-stage Liver Cirrhosis IHL 13 / ppCTL response, End-stage Liver Cirrhosis IHL 15 / ppCTL response, HCC Distal HCC 1 / ppCTL response, HCC Tumor HCC 1 / ppCTL response, HCC Distal HCC 4 / ppCTL response, HCC Distal HCC 9 / ppCTL response, HCC Tumor HCC 9 / ppCTL response, HCC Distal HCC 12: pP-specifically expanded culture; for ppCTL response, HCC Distal HCC 1: HCC 1 Distal; for ppCTL response, HCC Tumor HCC 1: HCC 1 Tumor; for ppCTL response, HCC Distal HCC 4: HCC 4 Distal; for ppCTL response, HCC Distal HCC 9: HCC 9 Distal; for ppCTL response, HCC Tumor HCC 9: HCC 9 Tumor; for ppCTL response, HCC Distal HCC 12: HCC 12 Distal
[2] = system: expanded TIL / IHL cultures; experiment: ICS for MHC-I-pP reactivity of liver-derived lymphocyte cultures after unspecific rapid expansion protocol (REP); assay type: cell-based, human
[3] = system: unexpanded lymphocyte cultures (CD8^+ T cells); experiment: ICS for MHC-I-pP reactivity of lymphocyte cultures without expansion (Table 23, No Expansion)

Row | Substance | Reactive CD8^+ T cell population, HH2 (CD8^+ T cells (PBMCs)) | Reactive CD8^+ T cell population, HH3 (CD8^+ T cells (PBMCs)) | Reactive CD8^+ T cell population, HH6 (CD8^+ T cells (PBMCs)) | Reactive CD8^+ T cell population, HH8 (CD8^+ T cells (PBMCs)) | Reactive CD8^+ T cell population, HD1 (CD8^+ T cells (PBMCs)) | Reactive CD8^+ T cell population, HD4 (CD8^+ T cells (PBMCs)) | Reactive CD8^+ T cell population, HD5 (CD8^+ T cells (PBMCs)) | Reactive CD8^+ T cells, pP-specific Expansion, Do2 [1] | Reactive CD8^+ T cells, pP-specific Expansion, Do4 [1] | Reactive CD8^+ T cells, pP-specific Expansion, HH6 [1] | ppCTL response, Deceased Donor Liver Do 2 [1] | ppCTL response, Deceased Donor Liver Do 3 [1] | ppCTL response, Deceased Donor Liver Do 4 [1] | ppCTL response, Deceased Donor Liver Do 6 [1] | ppCTL response, End-stage Liver Cirrhosis IHL 11 [1] | ppCTL response, End-stage Liver Cirrhosis IHL 12 [1] | ppCTL response, End-stage Liver Cirrhosis IHL 13 [1] | ppCTL response, End-stage Liver Cirrhosis IHL 15 [1] | ppCTL response, HCC Distal HCC 1 [1] | ppCTL response, HCC Tumor HCC 1 [1] | further results
1 | SImsPEIQL: CIC phosphopeptide, HLA-A*0201 (SI[Met(O)][pS]PEIQL; listed as Homo sapiens) | 1 (0.25-2.5% reactive CD8^-+ T cells) | 0 (<0.25% reactive CD8^-+ T cells) | 0 (<0.25% reactive CD8^-+ T cells) | 0 (<0.25% reactive CD8^-+ T cells) | 0 (<0.25% reactive CD8^-+ T cells) | 0 (<0.25% reactive CD8^-+ T cells) | 0 (<0.25% reactive CD8^-+ T cells) | 0 (<0.25% reactive CD8^-+ T cells) | 0 (<0.25% reactive CD8^-+ T cells) | 2 (2.5-5.0% reactive CD8^-+ T cells) | 0 (<0.25% reactive CD8-+ T cells) | 0 (<0.25% reactive CD8-+ T cells) | 0 (<0.25% reactive CD8-+ T cells) | 0 (<0.25% reactive CD8-+ T cells) | 0 (<0.25% reactive CD8-+ T cells) | 0 (<0.25% reactive CD8-+ T cells) | 0 (<0.25% reactive CD8-+ T cells) | 0 (<0.25% reactive CD8-+ T cells) | 0 (<0.25% reactive CD8-+ T cells) | 0 (<0.25% reactive CD8-+ T cells) | ppCTL response, HCC Distal HCC 4 [1]: 0 (<0.25% reactive CD8-+ T cells); ppCTL response, HCC Distal HCC 9 [1]: 0 (<0.25% reactive CD8-+ T cells); ppCTL response, HCC Tumor HCC 9 [1]: 0 (<0.25% reactive CD8-+ T cells); ppCTL response, HCC Distal HCC 12 [1]: 0 (<0.25% reactive CD8-+ T cells); Reactive CD8^+ T cells, Non-specific Expansion, Do2 [2]: 0 (<0.25% reactive CD8^-+ T cells); Reactive CD8^+ T cells, Non-specific Expansion, Do4 [2]: 0 (<0.25% reactive CD8^-+ T cells); Reactive CD8^+ T cells, Non-specific Expansion, HH6 [2]: 0 (<0.25% reactive CD8^-+ T cells); Reactive CD8^+ T cells, No Expansion, HH6 [3]: 0 (<0.25% reactive CD8^-+ T cells)
2 | PmVTLsLNL (P[Met(O)]VTL[pS]LNL; listed as Homo sapiens) | 0 (<0.25% reactive CD8^-+ T cells) | 0 (<0.25% reactive CD8^-+ T cells) | 0 (<0.25% reactive CD8^-+ T cells) | 0 (<0.25% reactive CD8^-+ T cells) | 0 (<0.25% reactive CD8^-+ T cells) | 0 (<0.25% reactive CD8^-+ T cells) | 0 (<0.25% reactive CD8^-+ T cells) | 2 (2.5-5.0% reactive CD8^-+ T cells) | 1 (0.25-2.5% reactive CD8^-+ T cells) | 0 (<0.25% reactive CD8^-+ T cells) | 2 (2.5-5.0% reactive CD8-+ T cells) | 0 (<0.25% reactive CD8-+ T cells) | 2 (2.5-5.0% reactive CD8-+ T cells) | 1 (0.25-2.5% reactive CD8-+ T cells) | 0 (<0.25% reactive CD8-+ T cells) | 0 (<0.25% reactive CD8-+ T cells) | 0 (<0.25% reactive CD8-+ T cells) | 0 (<0.25% reactive CD8-+ T cells) | 0 (<0.25% reactive CD8-+ T cells) | 0 (<0.25% reactive CD8-+ T cells) | ppCTL response, HCC Distal HCC 4 [1]: 0 (<0.25% reactive CD8-+ T cells); ppCTL response, HCC Distal HCC 9 [1]: 0 (<0.25% reactive CD8-+ T cells); ppCTL response, HCC Tumor HCC 9 [1]: 0 (<0.25% reactive CD8-+ T cells); ppCTL response, HCC Distal HCC 12 [1]: 0 (<0.25% reactive CD8-+ T cells); Reactive CD8^+ T cells, Non-specific Expansion, Do2 [2]: 0 (<0.25% reactive CD8^-+ T cells); Reactive CD8^+ T cells, Non-specific Expansion, Do4 [2]: 1 (0.25-2.5% reactive CD8^-+ T cells); Reactive CD8^+ T cells, Non-specific Expansion, HH6 [2]: 0 (<0.25% reactive CD8^-+ T cells); Reactive CD8^+ T cells, No Expansion, HH6 [3]: 0 (<0.25% reactive CD8^-+ T cells)
3 | RTHsLLLLL (RTH[pS]LLLLL; listed as Homo sapiens) | 0 (<0.25% reactive CD8^-+ T cells) | 0 (<0.25% reactive CD8^-+ T cells) | 0 (<0.25% reactive CD8^-+ T cells) | 0 (<0.25% reactive CD8^-+ T cells) | 0 (<0.25% reactive CD8^-+ T cells) | 0 (<0.25% reactive CD8^-+ T cells) | 0 (<0.25% reactive CD8^-+ T cells) | 0 (<0.25% reactive CD8^-+ T cells) | 0 (<0.25% reactive CD8^-+ T cells) | 0 (<0.25% reactive CD8^-+ T cells) | 0 (<0.25% reactive CD8-+ T cells) | 0 (<0.25% reactive CD8-+ T cells) | 0 (<0.25% reactive CD8-+ T cells) | 0 (<0.25% reactive CD8-+ T cells) | 0 (<0.25% reactive CD8-+ T cells) | 0 (<0.25% reactive CD8-+ T cells) | 0 (<0.25% reactive CD8-+ T cells) | 0 (<0.25% reactive CD8-+ T cells) | 0 (<0.25% reactive CD8-+ T cells) | 0 (<0.25% reactive CD8-+ T cells) | Reactive CD8^+ T cell population, HH10 (CD8^+ T cells (PBMCs); HH patient HH10): 0 (<0.25% reactive CD8^-+ T cells); Reactive CD8^+ T cell population, HH11 (CD8^+ T cells (PBMCs); HH patient HH11): 0 (<0.25% reactive CD8^-+ T cells); Reactive CD8^+ T cell population, HD2 (CD8^+ T cells (PBMCs); Healthy donor HD2): 0 (<0.25% reactive CD8^-+ T cells); Reactive CD8^+ T cell population, HD3 (CD8^+ T cells (PBMCs); Healthy donor HD3): 0 (<0.25% reactive CD8^-+ T cells); ppCTL response, HCC Distal HCC 4 [1]: 0 (<0.25% reactive CD8-+ T cells); ppCTL response, HCC Distal HCC 9 [1]: 0 (<0.25% reactive CD8-+ T cells); ppCTL response, HCC Tumor HCC 9 [1]: 0 (<0.25% reactive CD8-+ T cells); ppCTL response, HCC Distal HCC 12 [1]: 0 (<0.25% reactive CD8-+ T cells); Reactive CD8^+ T cells, Non-specific Expansion, Do2 [2]: 0 (<0.25% reactive CD8^-+ T cells); Reactive CD8^+ T cells, Non-specific Expansion, Do4 [2]: 0 (<0.25% reactive CD8^-+ T cells); Reactive CD8^+ T cells, Non-specific Expansion, HH6 [2]: 1 (0.25-2.5% reactive CD8^-+ T cells); Reactive CD8^+ T cells, No Expansion, Do4 ([3]; Do4): 2 (2.5-5.0% reactive CD8^-+ T cells); Reactive CD8^+ T cells, No Expansion, HH6 [3]: 1 (0.25-2.5% reactive CD8^-+ T cells)
